Read-outs that look alike come from different tables or passages of the source. One block for each compound: values may come before it.
How the values were obtained:
Assay in all cases: KinomeScan kinase profiling
Type in all cases: binding
CSNK1E = target: T1, CSNK1E (Homo sapiens, UniProt P49674)
T1 construct: purchased Ambit Biosciences (San Diego, Calif.)

DAPK2 = target: T2, DAPK2 (Homo sapiens, UniProt Q9UIK4)
T2 construct: purchased Ambit Biosciences (San Diego, Calif.)

FGFR3 = target: T3, FGFR3 (Homo sapiens, UniProt P22607)
T3 construct: purchased Ambit Biosciences (San Diego, Calif.)

FGR = target: T4, FGR (Homo sapiens, UniProt P09769)
T4 construct: purchased Ambit Biosciences (San Diego, Calif.)
T4 sequence (P09769 whole entry): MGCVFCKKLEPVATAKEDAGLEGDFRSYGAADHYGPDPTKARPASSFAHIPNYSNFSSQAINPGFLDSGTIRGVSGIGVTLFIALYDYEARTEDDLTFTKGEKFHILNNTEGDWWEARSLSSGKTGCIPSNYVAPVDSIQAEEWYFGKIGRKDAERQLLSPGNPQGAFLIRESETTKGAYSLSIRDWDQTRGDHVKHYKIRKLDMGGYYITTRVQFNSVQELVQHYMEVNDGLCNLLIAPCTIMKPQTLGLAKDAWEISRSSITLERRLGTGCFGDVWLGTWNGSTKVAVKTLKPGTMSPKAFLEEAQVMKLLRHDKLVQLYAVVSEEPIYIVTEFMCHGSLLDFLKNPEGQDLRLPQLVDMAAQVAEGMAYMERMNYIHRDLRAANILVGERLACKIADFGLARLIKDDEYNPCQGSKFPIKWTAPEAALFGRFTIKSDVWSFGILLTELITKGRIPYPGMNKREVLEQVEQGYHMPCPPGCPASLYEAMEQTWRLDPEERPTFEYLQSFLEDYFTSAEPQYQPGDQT

LIMK1 = target: T5, LIMK1 (Homo sapiens, UniProt P53667)
T5 construct: purchased Ambit Biosciences (San Diego, Calif.)
T5 sequence (P53667 whole entry): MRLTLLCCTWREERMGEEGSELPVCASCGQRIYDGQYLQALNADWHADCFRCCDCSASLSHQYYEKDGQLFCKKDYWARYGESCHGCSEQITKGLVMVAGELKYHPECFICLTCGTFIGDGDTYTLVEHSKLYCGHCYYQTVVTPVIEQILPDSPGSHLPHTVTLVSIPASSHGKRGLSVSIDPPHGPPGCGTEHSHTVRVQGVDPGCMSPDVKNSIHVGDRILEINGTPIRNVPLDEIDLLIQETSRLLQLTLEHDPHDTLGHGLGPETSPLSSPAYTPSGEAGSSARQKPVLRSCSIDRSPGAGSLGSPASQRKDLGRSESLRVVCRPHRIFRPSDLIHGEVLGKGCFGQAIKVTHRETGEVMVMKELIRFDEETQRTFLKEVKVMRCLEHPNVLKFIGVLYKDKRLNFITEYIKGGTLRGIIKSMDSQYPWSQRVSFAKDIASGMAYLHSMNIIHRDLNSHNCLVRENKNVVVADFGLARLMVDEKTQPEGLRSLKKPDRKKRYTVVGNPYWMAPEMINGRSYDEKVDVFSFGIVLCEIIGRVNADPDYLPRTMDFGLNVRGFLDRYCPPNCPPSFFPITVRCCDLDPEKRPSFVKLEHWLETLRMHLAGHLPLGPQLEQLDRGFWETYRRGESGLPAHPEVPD

p38-alpha = target: T6, p38-alpha (Homo sapiens, UniProt Q16539)
T6 construct: purchased Ambit Biosciences (San Diego, Calif.)

p38-beta = target: T7, p38-beta (Homo sapiens, UniProt Q15759)
T7 construct: purchased Ambit Biosciences (San Diego, Calif.)

PAK4 = target: T8, PAK4 (Homo sapiens, UniProt O96013)
T8 construct: purchased Ambit Biosciences (San Diego, Calif.)

PHKG1 = target: T9, PHKG1 (Homo sapiens, UniProt Q16816)
T9 construct: purchased Ambit Biosciences (San Diego, Calif.)

BIKE = target: T10, BIKE (Homo sapiens, UniProt Q9NSY1)
T10 construct: purchased Ambit Biosciences (San Diego, Calif.)
Source text: (§1) The selectivity of a given CK1δ, CK1ε or CK1δ-CK1ε inhibitor compound can be determined by testing the compound against a panel of known kinases. An example of such a kinase profiling technology is the “KinomeScan” from Ambit Biosciences in which compounds can be screened for their modulatory activities against more than 200 known kinases.

BMX = target: T11, BMX (Homo sapiens, UniProt P51813)
T11 construct: purchased Ambit Biosciences (San Diego, Calif.)
Source text: as §1

CAMKK1 = target: T12, CAMKK1 (Homo sapiens, UniProt Q8N5S9)
T12 construct: purchased Ambit Biosciences (San Diego, Calif.)
Source text: as §1

CAMKK2 = target: T13, CAMKK2 (Homo sapiens, UniProt Q96RR4)
T13 construct: purchased Ambit Biosciences (San Diego, Calif.)
T13 sequence (Q96RR4 whole entry): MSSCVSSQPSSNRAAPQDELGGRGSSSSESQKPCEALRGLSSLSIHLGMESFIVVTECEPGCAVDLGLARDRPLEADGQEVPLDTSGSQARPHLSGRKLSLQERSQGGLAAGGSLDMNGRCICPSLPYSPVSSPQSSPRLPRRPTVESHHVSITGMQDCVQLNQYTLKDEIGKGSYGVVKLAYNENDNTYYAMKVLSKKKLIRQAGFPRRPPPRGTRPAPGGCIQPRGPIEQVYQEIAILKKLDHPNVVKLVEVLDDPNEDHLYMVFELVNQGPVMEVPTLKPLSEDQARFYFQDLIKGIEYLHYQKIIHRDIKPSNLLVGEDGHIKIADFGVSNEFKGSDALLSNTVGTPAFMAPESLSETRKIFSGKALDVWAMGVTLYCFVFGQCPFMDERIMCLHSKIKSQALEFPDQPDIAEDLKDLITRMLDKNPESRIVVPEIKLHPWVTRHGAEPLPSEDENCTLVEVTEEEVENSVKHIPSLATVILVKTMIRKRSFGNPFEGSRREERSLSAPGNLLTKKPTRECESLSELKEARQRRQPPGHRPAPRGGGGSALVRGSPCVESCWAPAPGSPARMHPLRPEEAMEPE
Source text: as §1

CLK4 = target: T14, CLK4 (Homo sapiens, UniProt Q9HAZ1)
T14 construct: purchased Ambit Biosciences (San Diego, Calif.)
Source text: as §1

CSNK1G1 = target: T15, CSNK1G1 (Homo sapiens, UniProt Q9HCP0)
T15 construct: purchased Ambit Biosciences (San Diego, Calif.)
T15 sequence (Q9HCP0 whole entry): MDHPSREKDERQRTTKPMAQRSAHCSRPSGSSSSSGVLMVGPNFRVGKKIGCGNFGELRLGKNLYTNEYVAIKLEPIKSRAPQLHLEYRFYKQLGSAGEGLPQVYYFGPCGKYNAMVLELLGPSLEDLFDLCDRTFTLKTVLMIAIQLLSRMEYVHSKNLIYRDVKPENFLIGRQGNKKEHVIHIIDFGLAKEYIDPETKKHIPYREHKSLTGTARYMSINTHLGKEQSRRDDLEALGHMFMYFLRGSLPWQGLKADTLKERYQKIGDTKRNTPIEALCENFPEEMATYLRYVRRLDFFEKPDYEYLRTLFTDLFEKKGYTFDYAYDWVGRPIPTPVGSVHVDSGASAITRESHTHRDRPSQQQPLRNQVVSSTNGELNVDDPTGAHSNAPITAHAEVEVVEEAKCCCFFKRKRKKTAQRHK
Source text: as §1

DAPK3 = target: T16, DAPK3 (Homo sapiens, UniProt O43293)
T16 construct: purchased Ambit Biosciences (San Diego, Calif.)
Source text: as §1

EPHA7 = target: T17, EPHA7 (Homo sapiens, UniProt Q15375)
T17 construct: purchased Ambit Biosciences (San Diego, Calif.)
T17 sequence (Q15375 28-998): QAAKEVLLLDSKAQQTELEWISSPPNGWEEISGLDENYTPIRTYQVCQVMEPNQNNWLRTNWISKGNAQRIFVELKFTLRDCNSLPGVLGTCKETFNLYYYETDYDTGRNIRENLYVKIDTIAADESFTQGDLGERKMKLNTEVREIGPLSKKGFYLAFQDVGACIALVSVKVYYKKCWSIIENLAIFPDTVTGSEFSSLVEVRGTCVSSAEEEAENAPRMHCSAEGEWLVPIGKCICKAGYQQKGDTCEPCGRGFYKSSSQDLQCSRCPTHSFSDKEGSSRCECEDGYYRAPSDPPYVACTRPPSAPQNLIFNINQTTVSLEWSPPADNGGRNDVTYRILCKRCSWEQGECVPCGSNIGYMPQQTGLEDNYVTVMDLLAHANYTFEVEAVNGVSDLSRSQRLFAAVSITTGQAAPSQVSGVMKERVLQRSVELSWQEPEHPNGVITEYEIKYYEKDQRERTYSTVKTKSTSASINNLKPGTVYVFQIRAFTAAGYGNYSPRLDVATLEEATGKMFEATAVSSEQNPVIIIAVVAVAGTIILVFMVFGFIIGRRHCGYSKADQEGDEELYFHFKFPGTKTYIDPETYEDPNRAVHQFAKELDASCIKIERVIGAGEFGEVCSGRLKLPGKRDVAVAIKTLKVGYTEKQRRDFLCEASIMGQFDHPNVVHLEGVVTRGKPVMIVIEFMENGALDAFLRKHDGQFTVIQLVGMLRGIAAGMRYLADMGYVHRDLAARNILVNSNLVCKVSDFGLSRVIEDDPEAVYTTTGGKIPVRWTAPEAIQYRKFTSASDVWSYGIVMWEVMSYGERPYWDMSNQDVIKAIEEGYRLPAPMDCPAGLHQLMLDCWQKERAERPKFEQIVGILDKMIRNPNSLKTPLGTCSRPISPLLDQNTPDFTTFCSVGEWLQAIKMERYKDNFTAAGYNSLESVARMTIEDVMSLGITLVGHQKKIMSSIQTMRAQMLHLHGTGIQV
Source text: as §1

FER = target: T18, FER (Homo sapiens, UniProt P16591)
T18 construct: purchased Ambit Biosciences (San Diego, Calif.)
Source text: as §1

GAK = target: T19, GAK (Homo sapiens, UniProt O14976)
T19 construct: purchased Ambit Biosciences (San Diego, Calif.)
Source text: as §1

LTK = target: T20, LTK (Homo sapiens, UniProt P29376)
T20 construct: purchased Ambit Biosciences (San Diego, Calif.)
Source text: as §1

MKNK2 = target: T21, MKNK2 (Homo sapiens, UniProt Q9HBH9)
T21 construct: purchased Ambit Biosciences (San Diego, Calif.)
Source text: as §1

PAK6 = target: T22, PAK6 (Homo sapiens, UniProt Q9NQU5)
T22 construct: purchased Ambit Biosciences (San Diego, Calif.)
Source text: as §1

PAK7/PAK5 = target: T23, PAK7/PAK5 (Homo sapiens, UniProt Q9P286)
T23 construct: purchased Ambit Biosciences (San Diego, Calif.)
Source text: as §1

PDGFRA = target: T24, PDGFRA (Homo sapiens, UniProt P16234)
T24 construct: purchased Ambit Biosciences (San Diego, Calif.)
Source text: as §1

PIM2 = target: T25, PIM2 (Homo sapiens, UniProt Q9P1W9)
T25 construct: purchased Ambit Biosciences (San Diego, Calif.)
Source text: as §1

RIPK2 = target: T26, RIPK2 (Homo sapiens, UniProt O43353)
T26 construct: purchased Ambit Biosciences
Source text: as §1

ROS1 = target: T27, ROS1 (Homo sapiens, UniProt P08922)
T27 construct: purchased Ambit Biosciences
Source text: as §1

RPS6KA5 = target: T28, RPS6KA5 (Homo sapiens, UniProt O75582)
T28 construct: purchased Ambit Biosciences
Source text: as §1

SLK = target: T29, SLK (Homo sapiens, UniProt Q9H2G2)
T29 construct: purchased Ambit Biosciences
Source text: as §1

STK10 = target: T30, STK10 (Homo sapiens, UniProt O94804)
T30 construct: purchased Ambit Biosciences
Source text: as §1

STK11 = target: T31, STK11 (Homo sapiens, UniProt Q15831)
T31 construct: purchased Ambit Biosciences
T31 sequence (Q15831 whole entry): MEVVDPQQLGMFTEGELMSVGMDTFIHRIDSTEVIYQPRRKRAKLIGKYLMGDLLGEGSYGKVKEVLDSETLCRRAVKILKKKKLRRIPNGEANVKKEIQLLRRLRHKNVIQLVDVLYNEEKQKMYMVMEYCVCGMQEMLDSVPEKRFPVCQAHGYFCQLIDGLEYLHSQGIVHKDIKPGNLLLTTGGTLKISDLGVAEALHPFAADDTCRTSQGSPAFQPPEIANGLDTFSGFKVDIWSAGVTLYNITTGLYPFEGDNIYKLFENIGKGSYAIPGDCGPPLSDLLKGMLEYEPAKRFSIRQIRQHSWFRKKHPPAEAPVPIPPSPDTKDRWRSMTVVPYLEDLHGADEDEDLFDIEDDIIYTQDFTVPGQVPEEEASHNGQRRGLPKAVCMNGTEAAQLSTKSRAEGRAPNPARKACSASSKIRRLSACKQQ
Source text: as §1

STK16 = target: T32, STK16 (Homo sapiens, UniProt O75716)
T32 construct: purchased Ambit Biosciences
Source text: as §1

STK17B = target: T33, STK17B (Homo sapiens, UniProt O94768)
T33 construct: purchased Ambit Biosciences
T33 sequence (O94768 whole entry): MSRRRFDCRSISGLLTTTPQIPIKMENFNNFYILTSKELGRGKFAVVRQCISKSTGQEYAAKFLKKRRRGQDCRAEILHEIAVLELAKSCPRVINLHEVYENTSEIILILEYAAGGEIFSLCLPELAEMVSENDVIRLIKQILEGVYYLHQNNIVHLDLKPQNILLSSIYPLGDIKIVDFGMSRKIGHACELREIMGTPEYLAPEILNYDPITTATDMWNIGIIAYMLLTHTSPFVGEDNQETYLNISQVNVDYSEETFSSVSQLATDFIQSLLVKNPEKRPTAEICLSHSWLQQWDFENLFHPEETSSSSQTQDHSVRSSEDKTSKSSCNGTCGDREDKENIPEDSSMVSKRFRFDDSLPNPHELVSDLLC
Source text: as §1

STK36 = target: T34, STK36 (Homo sapiens, UniProt Q9NRP7)
T34 construct: purchased Ambit Biosciences
Source text: as §1

TNIK = target: T35, TNIK (Homo sapiens, UniProt Q9UKE5)
T35 construct: purchased Ambit Biosciences
Source text: as §1

ULK3(mouse) = target: T36, ULK3(mouse) (Mus musculus, UniProt Q3U3Q1)
T36 construct: purchased Ambit Biosciences (San Diego, Calif.)
Source text: as §1

YES = target: T37, YES (Homo sapiens, UniProt P07947)
T37 construct: purchased Ambit Biosciences (San Diego, Calif.)
Source text: as §1

RPS6KA2 = target: T38, RPS6KA2 (Homo sapiens, UniProt Q15349)
T38 construct: purchased Ambit Biosciences

RPS6KA3 = target: T39, RPS6KA3 (Homo sapiens, UniProt P51812)
T39 construct: purchased Ambit Biosciences

STK4 = target: T40, STK4 (Homo sapiens, UniProt Q13043)
T40 construct: purchased Ambit Biosciences
T40 sequence (Q13043 whole entry): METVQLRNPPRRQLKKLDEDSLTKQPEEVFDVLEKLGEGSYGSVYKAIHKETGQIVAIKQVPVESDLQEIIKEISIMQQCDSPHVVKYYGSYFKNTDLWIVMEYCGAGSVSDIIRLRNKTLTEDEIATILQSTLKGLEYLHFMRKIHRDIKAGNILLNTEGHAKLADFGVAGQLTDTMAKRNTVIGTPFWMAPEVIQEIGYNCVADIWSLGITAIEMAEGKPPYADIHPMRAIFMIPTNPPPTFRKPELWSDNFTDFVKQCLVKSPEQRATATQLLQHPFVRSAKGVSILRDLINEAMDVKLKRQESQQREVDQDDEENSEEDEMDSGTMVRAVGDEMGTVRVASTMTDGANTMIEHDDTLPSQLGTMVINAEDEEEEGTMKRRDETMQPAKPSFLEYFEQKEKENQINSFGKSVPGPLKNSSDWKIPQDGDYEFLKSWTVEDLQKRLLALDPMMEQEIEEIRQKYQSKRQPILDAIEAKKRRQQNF

T1 sequence (P49674 whole entry): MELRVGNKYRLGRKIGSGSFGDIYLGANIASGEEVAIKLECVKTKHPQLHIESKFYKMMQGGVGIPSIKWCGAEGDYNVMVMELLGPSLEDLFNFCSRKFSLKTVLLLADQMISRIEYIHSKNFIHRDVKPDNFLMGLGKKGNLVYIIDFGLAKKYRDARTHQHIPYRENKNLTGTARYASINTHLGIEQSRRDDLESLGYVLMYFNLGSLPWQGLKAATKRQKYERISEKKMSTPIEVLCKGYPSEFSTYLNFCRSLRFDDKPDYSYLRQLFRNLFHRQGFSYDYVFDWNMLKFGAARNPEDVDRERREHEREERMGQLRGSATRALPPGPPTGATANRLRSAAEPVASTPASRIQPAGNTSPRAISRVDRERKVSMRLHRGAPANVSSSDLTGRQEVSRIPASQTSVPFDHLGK

Structure (SMILES): NC(=O)c1ccc(-c2nc(-c3ccc4c(c3)OCCO4)c(-c3ccccn3)[nH]2)cc1 [D4476, 4-[4-(2,3-Dihydro-benzo[1,4]dioxin-6-yl)-5-pyridin-2-yl-1H-imidazol-2-yl]benzamide]
- inhibition at 10 µM (CSNK1E): 100%
- % Inhibition (CSNK1E; 10 μM, CSNK1E (CK1ε isoform)): 100%
- inhibition at 10 µM (DAPK2): < 50%
- inhibition at 10 µM (FGFR3): < 50%
- inhibition at 10 µM (FGR): < 50%
- inhibition at 10 µM (LIMK1): < 50%
- inhibition at 10 µM (p38-alpha): < 50%
- inhibition at 10 µM (p38-beta): < 50%
- inhibition at 10 µM (PAK4): < 50%
- inhibition at 10 µM (PHKG1): < 50%
- inhibition at 10 µM (BIKE): < 50%
- inhibition at 10 µM (BMX): < 50%
- inhibition at 10 µM (CAMKK1): < 50%
- inhibition at 10 µM (CAMKK2): < 50%
- inhibition at 10 µM (CLK4): < 50%
- inhibition at 10 µM (CSNK1G1): < 50%
- inhibition at 10 µM (DAPK3): < 50%
- inhibition at 10 µM (EPHA7): < 50%
- inhibition at 10 µM (FER): < 50%
- inhibition at 10 µM (GAK): < 50%
- inhibition at 10 µM (LTK): < 50%
- inhibition at 10 µM (MKNK2): < 50%
- inhibition at 10 µM (PAK6): < 50%
- inhibition at 10 µM (PAK7/PAK5): < 50%
- inhibition at 10 µM (PDGFRA): < 50%
- inhibition at 10 µM (PIM2): < 50%
- inhibition at 10 µM (RIPK2): < 50%
- inhibition at 10 µM (ROS1): < 50%
- inhibition at 10 µM (RPS6KA5): < 50%
- inhibition at 10 µM (SLK): < 50%
- inhibition at 10 µM (STK10): < 50%
- inhibition at 10 µM (STK11): < 50%
- inhibition at 10 µM (STK16): < 50%
- inhibition at 10 µM (STK17B): < 50%
- inhibition at 10 µM (STK36): < 50%
- inhibition at 10 µM (TNIK): < 50%
- inhibition at 10 µM (ULK3(mouse)): < 50%
- inhibition at 10 µM (YES): < 50%
- inhibition at 10 µM (RPS6KA2): < 50%
- inhibition at 10 µM (RPS6KA3): < 50%
- inhibition at 10 µM (STK4): < 50%

- % Inhibition (CSNK1E; 10 μM, CSNK1E (CK1ε isoform)): 100%
- inhibition at 10 µM (CSNK1E; 10 μM, CSNK1E (CK1ε isoform), read-out: % Inhibition): 100%
- inhibition at 10 µM (DAPK2): < 50%
- inhibition at 10 µM (FGFR3): < 50%
- inhibition at 10 µM (FGR): < 50%
- inhibition at 10 µM (LIMK1): < 50%
- inhibition at 10 µM (p38-alpha): < 50%
- inhibition at 10 µM (p38-beta): < 50%
- inhibition at 10 µM (PAK4): < 50%
- inhibition at 10 µM (PHKG1): < 50%
- inhibition at 10 µM (BIKE): < 50%
- inhibition at 10 µM (BMX): < 50%
- inhibition at 10 µM (CAMKK1): < 50%
- inhibition at 10 µM (CAMKK2): < 50%
- inhibition at 10 µM (CLK4): < 50%
- inhibition at 10 µM (CSNK1G1; 10 μM, CSNK1G1, read-out: % Inhibition): < 50%
- inhibition at 10 µM (DAPK3): < 50%
- inhibition at 10 µM (EPHA7): < 50%
- inhibition at 10 µM (FER): < 50%
- inhibition at 10 µM (GAK): < 50%
- inhibition at 10 µM (LTK): < 50%
- inhibition at 10 µM (MKNK2): < 50%
- inhibition at 10 µM (PAK6): < 50%
- inhibition at 10 µM (PAK7/PAK5): < 50%
- inhibition at 10 µM (PDGFRA): < 50%
- inhibition at 10 µM (PIM2): < 50%
- inhibition at 10 µM (RIPK2): < 50%
- inhibition at 10 µM (ROS1): < 50%
- inhibition at 10 µM (RPS6KA5): < 50%
- inhibition at 10 µM (SLK): < 50%
- inhibition at 10 µM (STK10): < 50%
- inhibition at 10 µM (STK11): < 50%
- inhibition at 10 µM (STK16): < 50%
- inhibition at 10 µM (STK17B): < 50%
- inhibition at 10 µM (STK36): < 50%
- inhibition at 10 µM (TNIK): < 50%
- inhibition at 10 µM (ULK3(mouse)): < 50%
- inhibition at 10 µM (YES): < 50%
- inhibition at 10 µM (RPS6KA2): < 50%
- inhibition at 10 µM (RPS6KA3): < 50%
- inhibition at 10 µM (STK4): < 50%
Structure (SMILES): NC(=O)c1ccc(-c2nc(-c3ccc4c(c3)OCO4)c(-c3ccccn3)[nH]2)cc1 [SB431542, 4-(4-benzo-[1,3]dioxol-5-yl-5-pyridin-2-yl-1H-imidazol-2-yl)benzamide]
